The values below come from patent publication US20180141913A1 (EISAI R & D MANAGEMENT CO., LTD., priority 2016, published 2018).

This assay deals with MCF7 cells with ectopic expression of ERα Y537S/N/C, D538G. Put plainly: In vitro proliferation of wild-type and mutant ER-bearing MCF7 lines with clinical therapies (FIG. 1). The assay is classed as cell-based, human. Here is the method:
48 h post-transfection, virus containing media was filtered and added to MCF7 cells in the presence of 8 µg/ml polybrene overnight. Two days following infection, cells were placed under selection with 10 µg/ml blasticidin for 2 weeks for stable expression.
In parallel, cells were also seeded in a separate 96-well plate (8 wells/cell line, control plate) for which a CTG (CellTiter-Glo® Luminescent Viability Assay, Promega, Cat #G7572) was measured the following day (day 0 reading). The day 0 reading was used for the GI50 calculation at the termination of the experiment. The day following seeding, compounds were added to assay plates. Briefly, a 1:4 serial dilution was prepared in DMSO at 200× final concentration for a total of 10 concentrations (9 dilutions containing compound and one is DMSO only). Serially diluted compounds were pipetted into medium to prepare a compound-medium mix at 10× final concentration. 10 μl of compound-medium mix was added to MCF7-WT and -Y537S cells at 3 wells/concentration (triplicate for each concentration). On day 3, media/compound was removed and replaced with fresh media/compound as described above. On day 6, CTG was measured and compared to day 0 readings from control plate to assess GI50.

Structures are written as SMILES.

Take `C[C@]12CC[C@@H]3c4ccc(O)cc4C[C@@H](CCCCCCCCC[S+]([O-])CCCC(F)(F)C(F)(F)F)[C@H]3[C@@H]1CC[C@@H]2O` (some centres unmarked) [fulvestrant]: the “Proliferation effect in mutant ER-bearing MCF7 lines relative to control lines” value is on record as “phenotypic resistance”.

`CC/C(=C(\c1ccccc1)c1ccc(OCCN(C)C)cc1)c1ccccc1` [tamoxifen]: the “Proliferation effect in mutant ER-bearing MCF7 lines relative to control lines” value is reported as “phenotypic resistance”.
